The assay deals with T1, RPA-ssDNA-RAD52 complex (Homo sapiens, UniProt P43351).
T1 construct: 6xHis; made in house
T1 sequence (P43351 1-418): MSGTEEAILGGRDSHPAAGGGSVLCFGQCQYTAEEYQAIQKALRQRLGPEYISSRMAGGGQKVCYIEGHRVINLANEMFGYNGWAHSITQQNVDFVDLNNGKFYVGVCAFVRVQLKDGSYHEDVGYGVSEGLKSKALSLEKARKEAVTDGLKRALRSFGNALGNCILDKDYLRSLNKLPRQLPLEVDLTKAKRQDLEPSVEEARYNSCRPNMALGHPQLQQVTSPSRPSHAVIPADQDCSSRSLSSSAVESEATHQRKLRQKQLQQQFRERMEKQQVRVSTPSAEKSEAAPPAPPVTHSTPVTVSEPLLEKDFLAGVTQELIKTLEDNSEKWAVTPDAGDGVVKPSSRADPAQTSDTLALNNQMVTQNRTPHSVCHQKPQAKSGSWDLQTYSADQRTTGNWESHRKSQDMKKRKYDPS
The experiment in a line: FRET-based inhibition of the RPA-ssDNA-RAD52 complex. Format: binding. Conditions: for effect on the RPA-ssDNA-RAD52 complex: FRET titration. The procedure:
Proteins: The 6×His-tagged human RAD52 proteins (wild type and mutants) and untagged human RPA were expressed and purified as previously described in (Hengel S R, eLife. 2016; 5; Grimme J M, et al., Nucleic Acids Res. 2010; 38(9):2917-30; and Henricksen L A, et al., The Journal of biological chemistry. 1994; 269(15):11121-32). RPA and RAD52 protein concentrations were determined by measuring absorbance at 280 nm using extinction coefficients of 88,830 M^−1 cm^−1 and 40,470 M^−1 cm^−1, respectively.
FRET-based DNA binding and inhibition assays: FRET-based that monitor the RAD52-ssDNA, RPA-ssDNA and RAD52-RPA-ssDNA binding were carried out as previously described (Hengel S R, eLife. 2016; 5; Grimme J M, et al., Nucleic Acids Res. 2010; 38(9):2917-30; and Grimme J M, Spies M. FRET-based assays to monitor DNA binding and annealing by Rad52 recombination mediator protein. Methods in molecular biology (Clifton, NJ). 2011; 745:463-83) using Cary Eclipse Spectrofluorimeter (Agilent) at 25° C., in 5 mm quartz cuvettes, and in buffer containing 30 mM Tris-Acetate (pH 7.5) and 1 mM DTT. Cy3 dye was excited at 530 nm and its emission was monitored at 565 nm. Emission of Cy5 acceptor fluorophore excited through the energy transfer from Cy3 donor is monitored at 660 nm simultaneously with emission of Cy3 dye. Both the excitation and the emission slits were set to 10 nm. All experiments were carried out using 1 nM (molecules) Cy3-dT30-Cy5 ssDNA. The optimal concentrations of the RAD52 (6 nM) and RPA (1 nM) proteins were selected by titrating the respective protein into 1 nM Cy3-dT30-Cy5 solution, and chosen based on the largest separation of the FRET values corresponding to the protein bound and free DNA.
The inhibition of the RAD52-ssDNA, RPA-ssDNA and RAD52-RPA-ssDNA complexes was evaluated by titrating each compound to the respective complex, measuring Cy3 and Cy5 fluorescence, and calculating FRET as previously described (Hengel, S. R., et al., eLife, 5).
Spectral properties of many compounds overlapped with the Cy3 and Cy5 fluorescence. To correct the calculated FRET values for the compound signal, the fluorogenic compounds were titrated into buffer and into solution of 1 nM Cy3-dT30-Cy5. For all tested compounds, the change in the signal in the Cy3 and Cy5 channels with and without Cy3/Cy5-labeled DNA present was the same. […] To account for the dye fluorescence, for each compound concentration, the apparent change in FRET of the ssDNA in the presence the compound was subtracted from the respective FRET signal of the RAD52-ssDNA, RPA-ssDNA or RAD52-ssDNA-RPA complex at the same inhibitor concentration. The IC50 values were calculated by fitting the corrected FRET data to the four-parameter dose response model using GraphPad Prism. All data are shown as average for at least three independent experiments ±standard deviation. The IC50 values are presented with their respective fitting error.

SMILES strings stand for the structures.

Consider `O=C(Cn1cccc([N+](=O)[O-])c1=O)c1c[nH]c2ccccc12` [Example 1], for which the “effect on the RPA-ssDNA-RAD52 complex” value is listed as “yields FRET values corresponding to the free ssDNA”.

With `COc1ccccc1NS(=O)(=O)c1cc(C(=O)O)ccc1C` [Example 8], the “effect on the RPA-ssDNA-RAD52 complex” value is given as “decreases the FRET values of the RPA-ssDNA-RAD52 complex”. Where the note is “wild type RAD52”, the “fold lower IC50 for the RPA-ssDNA-RAD52 complex than for the RAD52-ssDNA complex” value stood at 6 fold.

The record behind these values is patent US20260193227A1, “THERAPEUTIC COMPOUNDS AND METHODS” (UNIVERSITY OF IOWA RESEARCH FOUNDATION, priority 2022, published 2026).
